From US12692274B2, “Tetrahydroisoquinoline derivatives for the treatment of red blood disorders and inflammatory diseases” (Sanofi, priority 2020, dated 2026)
pEC50, pIC50: −log10 of the molar value. “And” between values parts separate entries of the source, which are not always exact repeats. Equal entries are not always repeated. Where two headings read alike, the source gives them in different places.

Key:
[1] = the molecule shown is the open-chain precursor, rcm bond
[2] = system: NQO1 activation in BEAS-2B cells; test: BEAS-2B cellular MTT assay of NQO1 activation, 0.3% HSA; type: cell-based; conditions: BEAS+, read-out: BEAS+ EC50
Summary of the method: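 MTT read-out in BEAS-2B cells grown in BEBM with SingleQuots, no GA-1000, kept below 70% confluence; plates coated with collagen, with 0.3% or 0% HSA medium, seeded to 95-100% confluency at 48 h, 37 °C, 5% CO2.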

[3] = system: NQO1 activation in BEAS-2B cells; test: BEAS-2B cellular MTT assay of NQO1 activation, 0% HSA; type: cell-based; conditions: serum free, read-out: BEAS EC50 (nM) serum free
Summary of the method: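 For the 0% HSA condition, cells were seeded into collagen plates in HSA-free medium. Culture was BEAS-2B in BEBM plus BEGM SingleQuots lacking GA-1000, held under 70% confluence, at a seeding density reaching 95-100% confluence by 48 h.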

[4] = target: HIS-Keap1 full length / Biotin-Nrf2 (16-mer) (Homo sapiens, UniProt Q14145); test: biochemical
HIS-Keap1 full length / Biotin-Nrf2 (16-mer), sequence (Q14145 whole entry): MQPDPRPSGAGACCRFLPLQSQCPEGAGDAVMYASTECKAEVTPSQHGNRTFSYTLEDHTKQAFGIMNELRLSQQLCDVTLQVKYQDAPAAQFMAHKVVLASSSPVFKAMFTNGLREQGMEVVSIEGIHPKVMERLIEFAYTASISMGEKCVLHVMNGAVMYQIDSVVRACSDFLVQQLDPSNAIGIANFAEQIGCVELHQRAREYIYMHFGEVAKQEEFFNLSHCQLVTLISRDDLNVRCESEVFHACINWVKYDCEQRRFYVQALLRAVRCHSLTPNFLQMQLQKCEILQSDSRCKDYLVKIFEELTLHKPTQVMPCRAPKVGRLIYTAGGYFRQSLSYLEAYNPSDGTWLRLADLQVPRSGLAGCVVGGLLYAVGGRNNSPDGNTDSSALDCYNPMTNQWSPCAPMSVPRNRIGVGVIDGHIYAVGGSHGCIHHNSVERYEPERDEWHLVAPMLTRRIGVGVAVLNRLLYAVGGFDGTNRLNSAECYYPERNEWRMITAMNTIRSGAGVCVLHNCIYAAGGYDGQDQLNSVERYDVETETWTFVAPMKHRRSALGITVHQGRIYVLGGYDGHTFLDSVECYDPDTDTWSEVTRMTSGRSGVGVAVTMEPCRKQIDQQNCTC

With “amide of methyl 3-(1-(but-3-en-1-yl)-4-methyl-1H-benzo[d][1,2,3]triazol-5-yl)-3-(1,2,3,4-tetrahydroisoquinolin-7-yl)propanoate with 5-(but-3-en-1-yloxy)pyrazine-2-carboxylic acid” as the compound, how does the ring closure, crude yield ([1]; 23-membered ring, Grubbs catalyst (General procedure 7)) read?
Its ring closure, crude yield is 42%.

Which ring closure, yield of all isomers (from C=CCCCOc1cc(C)c(C(CC(=O)OC)c2ccc3c(c2)CN(C(=O)c2ccc(C=C)cc2)CC3)cn1, rcm bond, Grubbs catalyst) does the source give for `COC(=O)CC1c2ccc3c(c2)CN(CC3)C(=O)c2ccc(cc2)C=CCCCOc2cc(C)c1cn2` (stereo not drawn) here?
The ring closure, yield of all isomers was 64%.

Which ring closure, yield of all isomers (from C=CCCCCn1cnc2c(C)c([C@H](CC(=O)OC)c3ccc4c(c3)CN(C(=O)c3ccc(C=C)cc3)CC4)ccc21, rcm bond, Grubbs 2nd generation catalyst, 48.0 h) does the source give for `COC(=O)C[C@@H]1c2ccc3c(c2)CN(CC3)C(=O)c2ccc(cc2)C=CCCCCn2cnc3c(C)c1ccc32` here?
The ring closure, yield of all isomers was 27%.

For “amide of 7-(3-methoxy-3-oxo-1-(2-(pent-4-en-1-yloxy)pyrimidin-5-yl)propyl)-1,2,3,4-tetrahydroisoquinolin-2-ium chloride with 4-vinylbenzoic acid”, which ring closure, crude yield ([1]; 21-membered ring, Grubbs catalyst (General procedure 15)) is on record?
Its ring closure, crude yield is 20%.

For `COC(=O)C[C@H]1c2ccc3c(c2)CN(CC3)C(=O)c2ccc(cc2)CC=CCCCn2nnc3c(C)c1ccc32`, which ring closure, yield of all isomers (from C=CCCCn1nnc2c(C)c([C@@H](CC(=O)OC)c3ccc4c(c3)CN(C(=O)c3ccc(CC=C)cc3)CC4)ccc21, rcm bond, Grubbs catalyst) is on record?
The ring closure, yield of all isomers was 99%.

Which ring closure, crude yield ([1]; 22-membered ring, Grubbs catalyst (General procedure 15)) does the source give for “amide of benzyl 3-(6-(pent-4-en-1-yloxy)pyridin-3-yl)-3-(1,2,3,4-tetrahydroisoquinolin-7-yl)propanoate with 1-methyl-5-vinyl-1H-pyrrolo[2,3-b]pyridine-2-carboxylic acid” here?
Its ring closure, crude yield is 51%.

With `O=C(O)CC1c2ccc(nc2)OCCCCOc2ccc(cc2)C(=O)N2CCc3ccc1cc3C2` (stereo not drawn) [Compound 211, 2-(4-oxo-31,32,33,34-tetrahydro-6,11-dioxa-3(7,2)-isoquinolina-1(5,2)-pyridina-5(1,4)-benzenacycloundecaphane-2-yl)acetic Acid] as the compound, how does the pEC50 [2] read?
Its pEC50 is 5.76.

What about the pEC50 ([2]; Homo sapiens) of the same compound?
Its pEC50 is 5.66.

And the ring closure, yield of all isomers (from COC(=O)CC(c1ccc(OCCCCOc2ccc(C(=O)OC(C)(C)C)cc2)nc1)c1ccc2c(c1)CN(C(=O)OC(C)(C)C)CC2, amide bond, 3 steps)?
Its ring closure, yield of all isomers is 7.8%.

What about the EC50 ([3]; Homo sapiens) of the same compound?
Its EC50 is 829 nM.

And the EC50 [3]?
Its EC50 is 574 nM.

What about the pIC50 [4] of the same compound?
The pIC50 was 7.97 and 7.61.
